Here are results for two compounds from patent US20200223837A1, “BENZOFURAN AMIDES AND HETEROAROMATIC ANALOGUES THEREOF FOR USE IN THERAPY” (European Molecular Biology Laboratory, priority 2017, published 2020).

pEC50: −log10 of the molar value.

Data set [1] in a line: Bioavalability (PO/IV pharmacokinetic study). The class given is in vivo, Male Balb/c mice. As to conditions: mice, PO 30 mg/kg vs IV 10 mg/kg. As for the experimental part: Male Balb/c mice (11-12 weeks old, body weight 23.7 to 30.6 g and average body weight across all groups 26.5 g, SD=1.6 g) are used in this study. The animals are randomly assigned to the treatment groups before the pharmacokinetic study; all animals are fasted for 3 h before dosing. Six time points (IV: 5, 15, 30, 60, 120 and 240 min, and PO: 15, 30, 60, 120, 240, and 360 min) are used in this pharmacokinetic study. Each of the PO and IV time point treatment groups includes 4 animals; there is also control group of 2 animals. Dosing is done according to the treatment schedules outlined in the Table 2. Mice are injected IV with tribrometanol at the dose of 150 mg/kg prior to taking blood. Blood samples are withdrawn from retroorbital sinus and are collected in microcontainers containing K2EDTA. All samples are immediately prepared, flash-frozen and stored at −70° C. until subsequent bioanalysis.
Plasma samples (50 μl) are mixed with 200 μl of IS solution (100 ng/ml in acetonitrile-methanol mixture 1:1, v/v). After mixing by pipetting and centrifuging for 4 min at 6,000 rpm, 2 μl of each supernatant is injected into a LC-MS/MS system.
The concentrations of test compound are determined using a high performance liquid chromatography/tandem mass spectrometry (HPLC-MS/MS) method. […]

A short description of data set [2]: Microsomal stability. The class given is in vitro ADME. Conditions: mouse liver microsomes, 2 μM test compound, 37° C. As for the experimental part:
Mouse hepatic microsomes were isolated from pooled (50), perfused livers of Balb/c male mice according to the standard protocol (Hill, J. R. in Current Protocols in Pharmacology 7.8.1-7.8.11, Wiley Interscience, 2003). The batch of microsomes was tested for quality control using Imipramine, Propranolol and Verapamil as reference compounds. Microsomal incubations were carried out in 96-well plates in 5 aliquots of 40 μL each (one for each time point). Liver microsomal incubation medium contained PBS (100 mM, pH 7.4), MgCl2 (3.3 mM), NADPH (3 mM), glucose-6-phosphate (5.3 mM), glucose-6-phosphate dehydrogenase (0.67 units/ml) with 0.42 mg of liver microsomal protein per ml. Control incubations were performed replacing the NADPH-cofactor system with PBS.
Test compound (2 μM, final solvent concentration 1.6%) is incubated with microsomes at 37° C., shaking at 100 rpm. Incubations are performed in duplicates. Five time points over 40 minutes are analyzed. The reactions are stopped by adding 12 volumes of 90% acetonitrile-water to incubation aliquots, followed by protein sedimentation by centrifuging at 5500 rpm for 3 minutes. Supernatants are analyzed using the HPLC system coupled with tandem mass spectrometer. The elimination constant (kel), half-life (t½) and intrinsic clearance (Clint) is determined in plot of In(AUC) versus time, using linear regression analysis.

Data set [3] has as its target T1, pirin (Homo sapiens, UniProt O00625).
T1 sequence (O00625 1-290): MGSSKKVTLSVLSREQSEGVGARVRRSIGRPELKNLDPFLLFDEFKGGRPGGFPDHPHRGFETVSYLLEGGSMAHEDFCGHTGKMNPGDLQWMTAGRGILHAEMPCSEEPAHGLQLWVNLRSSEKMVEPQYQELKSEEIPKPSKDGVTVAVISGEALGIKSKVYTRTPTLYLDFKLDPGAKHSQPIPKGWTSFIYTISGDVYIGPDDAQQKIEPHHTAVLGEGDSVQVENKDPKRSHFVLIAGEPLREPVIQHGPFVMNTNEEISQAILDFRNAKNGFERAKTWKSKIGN
In words: Nano differential scanning fluorimetry (NanoDSF), thermal melting of pirin. Conditions: 10 μM pirin in PBS, 20 μM test compound.
Excerpt: NanoDSF is an advanced Differential Scanning Fluorimetry method for measuring protein stability using intrinsic tryptophan or tyrosine fluorescence. The fluorescence of the tryptophans and tyrosines in a protein is strongly dependent on their close surroundings. Changes in protein structure typically affect both the intensity and the emission wavelength especially of tryptophan fluorescence. By measuring fluorescence intensity at 330 nm and 350 nm, the change in fluorescence intensity and the shift of the fluorescence maximum upon unfolding can be used to detect thermal melting of the protein. Proteins are stabilized when associated with ligands and show a shift in their melting temperatures. NanoDSF has the advantages of being label free and observing the protein in solution.
A 10 μM solution of pirin in phosphate buffered saline, with or without 20 μM test compound, is subject to thermal denaturation under fluorescence monitoring using a Prometheus NT.48 instrument of NanoTemper Technologies. Unliganded pirin has a complex biphasic melting curve. […] If the test compound is a ligand to pirin, it adopts a single thermal transition some 10° C. above that of apopirin.

The test system of data set [4] is patient derived CLL samples. In words: Growth inhibition of cells derived from patients with CLL. The class given is cell-based. As to conditions: 27 patient derived CLL isolates; for pEC50: Homo sapiens, read-out: median EC50. As for the experimental part: HeLa, A549 and HCT116 cells were grown in high-glucose Dulbecco's Modified Eagle's Medium (DMEM, Sigma)+10% FBS+1% penicillin and streptomycin+1% L-glutamine, at 37° C. with 5% CO2 and 95% humidity. Cytotoxic screening of the ProQinase panel of 100 cell-lines was performed by ProQinase (Freiburg, Germany). Patient derived CLL isolates were prepared and screened as described by Dietrich et al. (S. Dietrich et al., J Clin Invest, 2018, 128(1), 427-445). Cell viability was determined after 48 hours using the ATP-based CellTiter Glo assay (Promega). Luminescence was measured with a Tecan Infinite F200 Microplate Reader (Tecan Group AG) and with an integration time of 0.2 seconds per well.
The response of 97 tumour samples derived from patients with CLL was investigated. All samples tumor cells were obtained from whole blood, subjected to Ficoll-Isopaque density centrifugation. CD19+B and CD3+ T cells were isolated by positive magnetic cell separation (Miltenyi Biotec). Sorted cells were checked for purity by fluorescence-activated cell sorting (FACS) with CD19/CD20 for healthy control samples and CD19/CD20/CD5 for CLL samples (BD Biosciences). Following sorting, all samples with a CD19/CD20/CD5 purity <98% were subjected to additional sorting, and the average final purity of all sorted samples was >99%. CLL samples with >[…] were not subject to purification.
Cells are incubated for three days with an eight-point three-fold titration series of the test compound from an initial concentration of 30 μM (2000 cells per well in a volume of 50 μl). Cellular viability is estimated by the addition of 25 μL of ATPlite (Perkin Elmer) with the resulting luminescence measured using an EnVision Xcite plate reader (Perkin Elmer).
In addition, the growth inhibitory response of a selection of 27 patient derived CLL isolates (S. Dietrich et al., J Clin Invest, 2018, 128(1), 427-445) against the compounds of examples 64 and 85 was evaluated using the procedure as described above.

As for `Cc1cnc(NC(=O)Cc2coc3cc4c(cc23)CCC4)s1` [Example 64, 2-(6,7-Dihydro-5H-cyclopenta[f]benzofuran-3-yl)-N-(5-methylthiazol-2-yl)acetamide], the oral bioavalability in data set [1] is on record as 9.9%. The same compound returned a microsomal stability in data set [2] of 10 min. Further, the “increase in the Tm of melting” value in data set [3] is “approximately 11 °C”. Further, in data set [4], the growth inhibitory response result was “active against all isolates” and the pEC50 is 5.22.

Regarding `O=C(Cc1coc2c(Cl)c(Cl)ccc12)Nc1ncc(C(F)(F)F)s1` [Example 85, 2-(6,7-Dichlorobenzofuran-3-yl)-N-[5-(trifluoromethyl)thiazol-2-yl]acetamide], in data set [1], the oral bioavalability is reported as 40%. Further, the microsomal stability in data set [2] came to 113 min. Besides, the “increase in the Tm of melting” value in data set [3] is “approximately 11 °C”. In addition, in data set [4], the growth inhibitory response result is “active against all isolates” and the pEC50 was 5.78.
